Test results from patent publication US20220411397A1, “ANALOGUES OF N-ACYL-HOMOSERINE LACTONES AND PHARMACEUTICAL COMPOSITION COMPRISING SAME” (SORBONNE UNIVERSITE, priority 2019, published 2022).
Like-named read-outs stand apart in the source and are kept apart here.

How the values were obtained:
Caco-2/TC7 cells [1] = test: Cytotoxicity test, LDH secretion, Caco-2/TC7; format: cell-based; settings: 1-100 μM; for measured cytotoxicity (LDH): Caco-2/TC7
Protocol: (§1) 1.2.6. […] To measure the concentration of LDH in the cell lysate, 800 μL of NADH was added to 10 μL of […] and 190 μL of 0.1 M PBS in a plastic cuvette, and the decrease in the absorbance at 340 nm was monitored for 1 min. […] The percentage of cytotoxicity could be established with the formula: […]
(§2) The cytotoxicity of the tested and control compounds was evaluated using a measurement test of the LDH (Lactate Dehydrogenase) secretion. This test is based on the measurement of the amount of LDH secreted by the cells in their supernatant, compared to the amount of LDH that will remain in the intracellular compartment. This ratio provides an indication of the membrane damage suffered by the cells, and thus of the cytotoxicity of the compound.
(§3) Two methods were used to perform this test: the measurement using an extemporaneously prepared pyruvate/NADH solution, or using the Cytotoxicity Detection Kit^PLUS(LDH) from the manufacturer Roche (Sigma-Aldrich).
(§4) Pyruvate/NADH method: pyruvate/NADH solution prepared with 4.1 mg pyruvic acid (0.62 mM) and 7.7 mg NADH (0.18 mM) in 60 ml of 0.1M PBS (pH 7.4).
(§5) For the measurement of the LDH concentration in the supernatants, 800 μL of NADH was added to 200 μL of supernatant in plastic spectrometry cuvettes, and the decrease in absorbance of the final solution was read at 340 nm for 1 min. For the measurement of the LDH concentration in the cell lysates, 800 μL of NADH was added to 10 μL of cell lysates and 190 μL of 0.1M PBS in plastic spectrometry cuvettes, and the decrease in absorbance of the final solution was read at 340 nm for 1 min. The percentage of LDH secreted was then calculated by the ratio of the decay slopes of the absorbance of the supernatants and of the cell lysates (respectively).
(§6) Cytotoxicity Detection Kit^PLUS (LDH) method: absorbance test performed according to the manufacturer's instructions. The percentage of LDH secreted was then calculated by the formula: […]

human lymphocytes = test: Inhibition of IL-2 secretion by human lymphocytes stimulated by CD2, CD3 and CD28; format: cell-based; settings: test of FIG. 5
Raw264.7 murine cells = test: Cytotoxicity test, LDH secretion, Raw264.7; format: cell-based; settings: as early as 50 μM; basal and stimulated conditions
Protocol: as §1, §2, §3, §4, §5, §6

human keratinocytes = test: Inhibition of IL-8 secretion by human keratinocytes stimulated by IL-17 and TNF-α; format: cell-based; settings: test of FIG. 4
E. coli K12 strain = test: Bactericidal dosage on the E. coli K12 strain (absorbance at 600 nm); format: cell-based; settings: for comparative survival of E. coli K12: all concentrations, maximum 100 μM shown, 18 h
Protocol: 1.1.4. Bactericidal Dosage • The K12 strain of E. coli was grown on agar on day 0 and a colony was transferred to the LYBHI liquid bacterial culture medium on day 1. On day 2, the colony was diluted 1:100 in LYBHI medium and amplified for 18 hours before transfer to an opaque 96-well plate. In each well, LYBHI, controls or increasing doses of tested molecules and bacteria were distributed. The absorbance at 600 nm was read at start-up (t=0) and after an 18-hour incubation. The raw absorbance values were corrected using the absorbance of solutions without bacteria. All experiments were performed twice, each with 4 replicates.
The E. coli K12 strain was cultured at D0 on agar gel, and then a selected colony was transferred to a liquid bacterial culture LYBHI medium at D1. At day 2, this colony was diluted 1:100 in LYBHI medium, and maintained for 18 hours for expansion before distribution in an opaque 96-well plate. In each well were distributed: LYBHI medium, bacterial culture, and test or control compounds. The absorbance of the wells was read at 600 nm at t0 and t18h. The raw absorbance values were corrected against the absorbance of the wells containing only LYBHI medium without bacteria or compounds.

LasR receptor = biological target: T1, LasR receptor (Pseudomonas aeruginosa, UniProt P25084); test: Activation of the LasR receptor on bacterial reporter strain E. coli pSB1075 (bioluminescence); format: cell-based
T1 construct: expressed in transfected cells; host or cells: Escherichia coli carrying plasmid pSB1075
T1 sequence (P25084 whole entry): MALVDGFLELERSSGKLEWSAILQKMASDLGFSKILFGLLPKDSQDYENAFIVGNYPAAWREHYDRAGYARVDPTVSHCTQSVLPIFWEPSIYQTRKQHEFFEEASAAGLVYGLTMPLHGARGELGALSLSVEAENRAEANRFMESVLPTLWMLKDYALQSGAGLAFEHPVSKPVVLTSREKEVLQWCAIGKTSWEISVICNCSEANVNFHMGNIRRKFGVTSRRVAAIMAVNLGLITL
Source text: 1.1.3. The Bacterial Reporter Strain E. coli pSB1075 • A bacterial reporter strain of the Quorum Sensing was used to study the ability of the molecules to be recognized by the Pseudomonas aeruginosa AHL receptor (LasR) and induce an activation. […] This bioluminescent strain was modified by addition of a plasmid pSB1075. This plasmid contains genes encoding both tetracycline resistance and the expression of the LasR AHL receptor from the Pseudomonas aeruginosa bacteria, as well as a fusion gene derived from the LasR promoter and the luxCDABE gene from Photorhabdus luminescence. The bacterial strain was grown in the LB medium supplemented with 5 μg/ml tetracycline to exert a selection pressure and ensure that only the desired strain was amplified. The fusion gene included in the plasmid gives the bacteria the ability to emit a bioluminescence when the LasR receptor is activated, and provides the user with a robust test for the molecular screening. […] On day 1, the culture was diluted 1:100 (P1) in 10 ml of LB medium supplemented with 5 μg/ml tetracycline and maintained for 24 hours at 37° C. under stirring at 70 rpm. On day 2, the experiment took place: a bacterial suspension extemporaneously diluted 1:10 in LB medium supplemented with 5 μg/ml tetracycline (P2) was dispensed into a black opaque 96-well plate and incubated for 4 hours with a range of AHL concentrations or controls until the resulting luminescence was read at the end point. All experiments were performed in triplicates.
1.3. […] This bioluminescent strain was developed by the addition of a plasmid pSB1075 containing genes encoding the tetracycline resistance and the expression of the LasR AHL receptor, as well as a fusion gene of the LasR promoter and the luxCDABE gene of Photorhabdus luminescence. • On day 1, a 1/100 dilution of the bacterial strain (P1) was grown for 24 hours at 37° C. under stirring (70 rpm) in a LB medium containing 5 μg/ml tetracycline (pressure selective). On day 2, P1 was diluted 1:10 in the same medium to obtain P2. In a black 96-well plate were placed 200 μL of P2 and 10 μL of the short chain compound (medium, water and DMSO for the negative controls, C4-HSL as positive control, and the test sample at the desired concentration). The plate was incubated for 4 hours at 37° C. under stirring at 70 rpm. […] After that, the incubation was continued according to the conventional protocol, with the test compound at the desired concentrations.

Caco-2/TC7 cells [2] = test: Stimulation of Caco-2/TC7 cells by IL-1β, IL-8 secretion (ELISA); format: cell-based, human
Source text: 1.1.1. The Caco-2/TC7 Cell Line • The Caco-2 cell line is derived from a human colon adenocarcinoma and represents a cell culture model of enterocytes lining the epithelium of the small intestinal. […] During the exponential growth phase (from seeding to confluence), the cells remain undifferentiated. At confluence, they can spontaneously (in the absence of differentiation inducers) differentiate and progressively polarize. The differentiation process, which is a growth-related mechanism, is maximal at the end of confluence (stationary phase of the growth curve). • The cells develop a brush border at the apical pole containing microvilli and with characteristic enterocytic enzymes, such as hydrolases. • In accordance with the published literature, the Caco-2/TC7 cells in our experiments were seeded at 10^5 cells/well (equivalent to 10-12×10^3 cells/cm^2) in 6-well plastic culture plates. The cells were maintained in a glucose-rich medium (high glucose in the DMEM GlutaMAX medium 4.5 g/I glucose) supplemented with 20% heat-inactivated foetal calf serum, 1% nonessential amino acids NEAA, and 1% penicillin streptomycin. The cells were grown at 37° C. in a 10% CO2/air atmosphere. The medium was changed every day. Under these conditions, the cells were confluent on day 6. On day 17, the cells were serum-starved, and were used on day 18.
1.2.1. Stimulation of Caco-2/TC7 with Cytokines • The Caco-2/TC7 cells were seeded in 6-well plates at 100,000 cells/well and grown for 18 days. On day 17, the cells were serum-starved, which means that the cell medium was replaced with a foetal calf serum-free medium, and used on day 18. • The stimulation medium was composed of a medium referred to as “starvation medium”, i.e. without foetal calf serum (DMEM GlutaMAX, 1% NEAA, 1% penicillin-streptomycin) with 100 μM of 2-HQ. The cells were incubated for 18 h at 37° C. with 2 ml of stimulation medium containing 0.1% DMSO (negative control) or stimulation medium containing the compounds tested at desired concentrations, with or without proinflammatory cytokines to induce an inflammation. To induce the inflammation, either the IL-1β at 25 ng/ml or the combination of TNF-α and IFN-γ at 50 ng/ml each were used. After 18 h, the supernatants were collected and stored at −80° C. before analysis by ELISA test. The cells were washed with 1 ml of PBS 1×/well, and lysed in 100 μl of PBS 1× containing 1% Triton X-100. The cells were harvested by scraping and stored at −80° C. before the quantification of the protein. The dosing of the LDH was performed immediately before freezing. • All the experiments on the cells were performed in triplicates.
1.2.4. Quantification of the Human Cytokines by ELISA • The levels of the proinflammatory cytokine IL-8 produced by the cells were determined in the cell supernatants and/or cell lysates using the commercially available IL-8 ELISA detection kit (Duoset Human C×CL8/IL-8, ref. DY208) provided by R & D Systems (Minneapolis, Minn., USA) according to the instructions of the manufacturer. • All the cytokine levels were first normalized to the protein content determined in the corresponding cell lysates. Then, to compare the experiments, they could be further normalized using the activated control condition (DMSO+cytokines) as the 100% response.

CCCCCCCCCC(=O)CC(=O)N[C@H]1CCOC1=O [3-oxo-C12-HSL, N-(3(S)-oxododecanoyl) homoserine lactone, reference compound]
measured cytotoxicity (LDH) (Caco-2/TC7 cells [1]): ≤ 2.5%
activity on IL-2 secretion by lymphocytes (human lymphocytes): inactive
secreted LDH, Raw264.7 (Raw264.7 murine cells): an increase in secreted LDH
activity on IL-8 secretion by keratinocytes (human keratinocytes): inactive

CC/C=C\C/C=C\CCC(=O)CC(=O)N[C@H]1CCOC1=O [3-oxo-C12:2-HSL, reference compound]
tolerance, Caco-2/TC7 (Caco-2/TC7 cells [1]; presence and absence of pro-inflammatory cytokines): well tolerated
measured cytotoxicity (LDH) (Caco-2/TC7 cells [1]): ≤ 1.5%
activity on IL-2 secretion by lymphocytes (human lymphocytes): inactive
secreted LDH, Raw264.7 (Raw264.7 murine cells): an increase in secreted LDH
bactericidal effect on E. coli K12 (E. coli K12 strain; 1-100 μM, 18 h of incubation): No toxic effect
activity on IL-8 secretion by keratinocytes (human keratinocytes): inactive

CCCCCCCCCC(=O)CC(=O)NC1CCSC1=O (racemic) [I-1, 3-oxo-N-(tetrahydro-2-oxo-3-thienyl)-dodecanamide]
EC50 (LasR receptor): 0.125 µM
activity on IL-1β-stimulated Caco-2/TC7 cells compared with natural 3-oxo-C12 HSL (Caco-2/TC7 cells [2]; IL-1β stimulation, no concentration range stated): an activity equivalent to that of the natural 3-oxo-C12 HSL
activity on IL-1β-stimulated Caco-2/TC7 cells compared with natural 3-oxo-C12 HSL (Caco-2/TC7 cells [2]; at the 100 μM dose): more active than the latter
comparative survival of E. coli K12 (E. coli K12 strain): No significant differences

CCCC(=O)N[C@H]1CCOC1=O [C4-HSL, reference compound]
EC50 (LasR receptor; bacterial reporter strain, read-out: EC50 of LasR receptor activation): > 1000 µM

CCCCCCCCCC(=O)CC(=O)N[C@H]1CCSC1=O [I-3, 3-oxo N-[(3S)-tetrahydro-2-oxo-3-thienyl]-dodecanamide]
decrease in the inflammatory secretion (Caco-2/TC7 cells [2]; at 5 μM, IL-1β-stimulated Caco-2/TC7): 27%
comparative survival of E. coli K12 (E. coli K12 strain): No significant differences
